{
  "source": "patent US10794932B2",
  "about": "“Biosensor for the detection of a biological target, and method for manufacturing the same” (The Governing Council of The University of Toronto, priority 2016, dated 2020)",
  "key": {"TLR1": {"biological_target": "T1, TLR1 (Mus musculus, UniProt Q9EPQ1)", "T1 sequence (Q9EPQ1 26-795)": "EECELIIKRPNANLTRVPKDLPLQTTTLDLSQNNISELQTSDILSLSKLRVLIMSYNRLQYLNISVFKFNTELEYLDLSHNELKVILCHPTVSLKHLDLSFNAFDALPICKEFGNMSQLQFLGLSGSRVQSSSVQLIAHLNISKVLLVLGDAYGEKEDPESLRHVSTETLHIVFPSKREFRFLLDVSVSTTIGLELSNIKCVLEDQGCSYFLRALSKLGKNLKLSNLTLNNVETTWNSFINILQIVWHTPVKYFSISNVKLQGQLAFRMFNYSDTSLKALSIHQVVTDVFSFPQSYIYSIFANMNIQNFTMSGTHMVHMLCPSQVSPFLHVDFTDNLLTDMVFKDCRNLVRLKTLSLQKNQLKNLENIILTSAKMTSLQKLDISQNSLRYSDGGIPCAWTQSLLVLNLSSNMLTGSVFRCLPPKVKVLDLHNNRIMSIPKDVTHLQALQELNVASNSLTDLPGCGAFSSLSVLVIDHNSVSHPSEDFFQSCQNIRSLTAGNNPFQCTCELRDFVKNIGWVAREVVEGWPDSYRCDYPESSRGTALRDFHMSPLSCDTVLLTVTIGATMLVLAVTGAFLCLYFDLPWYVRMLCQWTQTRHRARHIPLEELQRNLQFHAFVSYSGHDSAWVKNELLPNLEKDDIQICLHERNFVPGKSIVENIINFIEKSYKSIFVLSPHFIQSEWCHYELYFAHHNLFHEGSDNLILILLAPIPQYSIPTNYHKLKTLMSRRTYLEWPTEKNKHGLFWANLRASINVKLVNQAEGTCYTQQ", "experiment": "TLR multiplex sensor, EIS film resistance before/after exposure (Example 5), TLR1 sensor", "type": "binding", "details": "exposure 20 minutes", "description": "(§1) For each multiplex TLR sensor, 5 separate gold electrodes were used for binding TLR 1 to 5. The 5 modified electrodes/sensors were exposed to the analyte solution and evaluated one by one using potentiostats and electrochemical cells.\n(§2) The preparation of each TLR biosensor was evaluated using EIS. It is understood that cyclic voltammetry as well as electrochemical impedance microscopy can also be used for monitoring the modification. […] Ethanolamine was then applied to deactivate unreacted LPA. Due to dissociation of unspecific absorbed TLR, the Rct dropped slightly. Experimental curves were evaluated using a model to obtain the Rct values, which can be seen at FIG. 9. Measurements from at least triplicated samples prepared were used to obtain statistic information.\n(§3) The TLR1 sensor was exposed to an E. coli K12 whole-cell buffer solution for 20 minutes. The sensor was then removed, washed thoroughly and characterized in the electrochemical cell measuring the Rct again. The difference in Rct before and after exposure is the response triggered by the target. The same protocol was carried out for all remaining TLRs (TLRs 2-5) to obtain one set of pattern for E. coli K12 (FIGS. 10b to 10e). Multiple sets were investigated for statistical relevance. […]"}, "TLR2": {"biological_target": "T2, TLR2 (Mus musculus, UniProt Q9QUN7)", "T2 sequence (Q9QUN7 25-587)": "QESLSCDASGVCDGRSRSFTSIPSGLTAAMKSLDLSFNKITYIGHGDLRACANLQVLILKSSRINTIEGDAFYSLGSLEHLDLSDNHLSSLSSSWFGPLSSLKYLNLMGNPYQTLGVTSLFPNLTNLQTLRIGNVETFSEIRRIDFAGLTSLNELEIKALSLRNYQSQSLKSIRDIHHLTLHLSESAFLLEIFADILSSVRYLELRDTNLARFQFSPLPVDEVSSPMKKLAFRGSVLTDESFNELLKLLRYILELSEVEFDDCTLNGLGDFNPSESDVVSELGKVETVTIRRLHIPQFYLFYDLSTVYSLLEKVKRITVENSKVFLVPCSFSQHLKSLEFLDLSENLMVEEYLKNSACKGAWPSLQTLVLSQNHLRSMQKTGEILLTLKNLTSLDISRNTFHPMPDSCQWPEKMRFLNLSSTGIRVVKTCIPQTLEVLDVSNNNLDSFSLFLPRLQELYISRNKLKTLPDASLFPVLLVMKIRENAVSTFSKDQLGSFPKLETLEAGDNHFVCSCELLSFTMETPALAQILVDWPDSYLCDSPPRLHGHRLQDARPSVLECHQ", "experiment": "TLR multiplex sensor, EIS film resistance before/after exposure (Example 5), TLR2 sensor", "type": "binding", "details": "exposure 20 minutes", "description": "as §1, §2, §3"}, "[1]": {"tested_on": "Toll-like receptor expressing cells", "details": "cited from earlier work"}},
  "data": [
    {"substance": "Pam3CSK4", "values": [
      {"measurement": "delta Rct %", "setting": "TLR1", "result": 20, "unit": "%"},
      {"measurement": "delta Rct %", "setting": "TLR2", "result": 35, "unit": "%"},
      {"measurement": "detection (lowest level previously reported)", "setting": "[1]", "result": 2, "unit": "µg/mL"}
    ]}
  ]
}
